Reference: the supplement of paper PMC10307832

What was measured:
Assay in all cases: relative viability (nuclei count vs DMSO), 5 days (fraction); higher = more cells survive
[1] = compound: C#Cc1cccc(Nc2ncnc3cc(OC)c(OCCCCCCC(=O)NO)cc23)c1 [CUDC-101] + Nc1ncn([C@H]2C[C@H](O)[C@@H](CO)O2)c(=O)n1 [Decitabine] (partner 2 µM)
In short: (§1)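 Relative viability was taken as the ratio of nuclei in treated wells to nuclei in vehicle wells. Lung cancer cell lines in 1536-well plates received compounds by pin tool one day after seeding, either one drug alone or a fixed anchor-drug dose plus five library-drug doses (not always all listed) in √10 steps. Nuclei were counted on 4× images after 5 days of treatment, and values are medians of duplicate plates.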

[2] = compound: C1=CC=C2C(=C1)N=C(S2)C(C#N)C3=NC(=NC=C3)NCCC4=CN=CC=C4 + Cc1nc(NC(=O)N2CCC[C@H]2C(N)=O)sc1-c1ccnc(C(C)(C)C(F)(F)F)c1 [Alpelisib] (partner 2 µM)
In short: as §1

[3] = compound: COc1cc(N2CCC(N3CCN(C)CC3)CC2)ccc1Nc1ncc(Cl)c(Nc2ccccc2S(=O)(=O)C(C)C)n1 [NVP-TAE684] + CC(=O)Nc1cccc(-n2c(=O)n(C3CC3)c(=O)c3c(Nc4ccc(I)cc4F)n(C)c(=O)c(C)c32)c1 [Trametinib] (partner 0.02 µM)
In short: as §1

[4] = compound: COc1cc(N2CCC(N3CCN(C)CC3)CC2)ccc1Nc1ncc(Cl)c(Nc2ccccc2S(=O)(=O)C(C)C)n1 [NVP-TAE684] + N=C(N)NC(=N)NCCc1ccccc1 [Phenformin] (partner 250 µM)
In short: as §1

Cell Line | relative viability ([1]; first compound 0.01 µM) | relative viability ([1]; first compound 0.03162 µM) | relative viability ([1]; first compound 0.1 µM) | relative viability ([1]; first compound 0.3162 µM) | relative viability ([1]; first compound 1 µM) | relative viability ([2]; first compound 0.005 µM) | relative viability ([2]; first compound 0.01581 µM) | relative viability ([2]; first compound 0.05 µM) | relative viability ([2]; first compound 0.1581 µM) | relative viability ([2]; first compound 0.5 µM) | relative viability ([3]; first compound 0.2 µM) | relative viability ([3]; first compound 0.6325 µM) | relative viability ([3]; first compound 2 µM) | relative viability ([4]; first compound 0.2 µM) | relative viability ([4]; first compound 0.6325 µM) | relative viability ([4]; first compound 2 µM)
EMC-BAC-2 | 1.09 | 0.925 | 0.948 | 0.952 | 0.654 | 0.566 | 0.768 | 0.686 | 0.76 | 0.67 | 0.89 | 0.822 | 0.47 | 0.402 | 0.464 | 0.319
NCI-H1437 | 0.556 | 0.537 | 0.553 | 0.533 | 0.498 | 0.797 | 1.11 | 0.962 | 1.09 | 0.695 | 0.523 | 0.444 | 0.225 | 0.283 | 0.31 | 0.224
NCI-H1944 | 0.409 | 0.434 | 0.431 | 0.428 | 0.363 | 0.799 | 0.86 | 0.771 | 0.835 | 0.803 | 0.41 | 0.41 | 0.364 | 0.211 | 0.202 | 0.197
NCI-H838 | 0.45 | 0.516 | 0.49 | 0.484 | 0.369 | 0.841 | 0.965 | 0.959 | 0.961 | 0.852 | 0.566 | 0.407 | 0.202 | 0.468 | 0.395 | 0.193
HCC-827 | 0.309 | 0.248 | 0.177 | 0.149 | 0.155 | 0.962 | 1.01 | 0.943 | 1.15 | 1.02 | 0.478 | 0.529 | 0.442 | 0.377 | 0.41 | 0.372
NCI-H2342 | 0.737 | 0.718 | 0.739 | 0.777 | 0.709 | – | – | – | – | – | 0.77 | 0.935 | 0.638 | 0.532 | 0.614 | 0.361
LOU-NH91 | 0.804 | 0.706 | 0.76 | 0.807 | 0.711 | 0.707 | 0.752 | 0.62 | 0.723 | 0.698 | 0.783 | 0.714 | 0.626 | 0.631 | 0.601 | 0.531
NCI-H3122 | 0.402 | 0.4 | 0.51 | 0.461 | 0.485 | 0.676 | 0.791 | 0.819 | 0.977 | 0.852 | 0.12 | 0.148 | 0.0944 | 0.156 | 0.131 | 0.125
NCI-H1563 | – | – | – | – | – | 0.924 | 0.869 | 0.947 | 0.962 | 0.861 | – | – | – | 0.662 | 0.645 | 0.53
NCI-H1734 | 0.514 | 0.487 | 0.497 | 0.471 | 0.389 | 0.695 | 0.729 | 0.518 | 0.726 | 0.714 | 0.696 | 0.673 | 0.517 | 0.332 | 0.338 | 0.255
EPLC-272H | 0.327 | 0.363 | 0.341 | 0.301 | 0.309 | 0.854 | 0.819 | 1.02 | 1.03 | 0.768 | 0.296 | 0.25 | 0.243 | 0.282 | 0.267 | 0.146
RERF-LC-KJ | 0.648 | 0.724 | 0.711 | 0.588 | 0.469 | 0.915 | 0.849 | 0.759 | 0.899 | 0.82 | 0.861 | 0.772 | 0.664 | 0.394 | 0.334 | 0.257
EBC-1 | – | – | – | – | – | 0.819 | 0.935 | 0.76 | 0.829 | 0.925 | – | – | – | – | – | –
HARA | 0.446 | 0.515 | – | 0.464 | 0.254 | 0.794 | 0.794 | 0.744 | 0.893 | 0.838 | 0.575 | 0.69 | 0.155 | 0.397 | 0.394 | 0.304
NCI-H1651 | 0.671 | 0.645 | 0.643 | 0.594 | 0.515 | 0.667 | 1.07 | 1.12 | 1.11 | 0.73 | – | 0.86 | 0.771 | 0.278 | 0.336 | 0.179
NCI-H2405 | 0.853 | 0.705 | 0.776 | 0.762 | 0.643 | 0.75 | 0.784 | 0.734 | 0.731 | 0.839 | 0.578 | 0.556 | 0.336 | 0.395 | 0.417 | 0.312
NCI-H596 | 0.902 | 1.03 | 0.988 | 1.18 | 1.02 | 0.401 | 0.576 | 0.44 | 0.541 | 0.384 | 0.712 | 0.581 | 0.688 | 0.709 | 0.656 | 0.579
NCI-H2009 | 0.416 | 0.372 | 0.415 | 0.438 | 0.351 | 1.13 | 1.22 | 1.18 | 1.16 | 1.12 | 0.302 | 0.234 | 0.178 | 0.47 | 0.458 | 0.328
